Experimental data reported in patent US11628181B2, “N4-hydroxycytidine and derivatives and anti-viral uses related thereto” (Emory University, priority 2014, dated 2023).
Converted amounts (≈) assume the structure as drawn. Read-outs that look alike come from different tables or passages of the source.

Key:
Chikungunya virus = Chikungunya virus (MOI 0.5) viral inhibition in U2OS cell line; assay type: cell-based; settings: for inhibition at 10 µM: read-out: Viral Inh. 10 uM; for inhibition at 50 µM: read-out: Viral Inh. 50 uM
U2OS cell line = test: Cell viability, U2OS cell line (Chikungunya screen)
in vitro [1] = test: in vitro
CHIKV = test: microbe, parasite or virus in culture; settings: Chikungunya virus
VEEV [2] = test: microbe, parasite or virus in culture; assay type: cell-based; settings: Venezuelan equine encephalitis virus, Astrocyte
MERV = MERV (MOI 0.4) viral inhibition in Vero; assay type: cell-based; settings: MERV MOI 0.4, Vero
Vero = test: Cell viability, Vero (MERV screen); assay type: cell-based
SARS Coronavirus Urbani = test: microbe, parasite or virus in culture; assay type: cell-based; settings: Severe acute respiratory syndrome-related coronavirus, Vero 76
in vitro [3] = settings: African green monkey
VEEV [4] = test: microbe, parasite or virus in culture; assay type: cell-based; settings: Venezuelan equine encephalitis virus, HeLa
HeLa = settings: human

| Compound | CC50 (in vitro [1]) [µM] | EC50 (CHIKV) [µM] | further results |
| --- | --- | --- | --- |
| O=c1nc(NO)c(F)cn1[C@@H]1O[C@H](CO)C(O)C1O (stereo partly drawn) [drawing 76] | – | – | inhibition at 10 µM (Chikungunya virus): 8%; inhibition at 50 µM (Chikungunya virus): 51%; Cell Viability 10 uM (U2OS cell line): 81% ± 4% (n = 4); Cell Viability 50 uM (U2OS cell line): 53% ± 2% (n = 4) |
| O=c1nc(NO)ccn1[C@@H]1O[C@H](CO)C(O)[C@@H]1O (stereo partly drawn) [EIDD-02200-01] | > 500 | > 78 | – |
| NNc1ccn([C@@H]2O[C@H](CO)C(O)[C@@H]2O)c(=O)n1 (stereo partly drawn) [EIDD-01910-01] | > 500 | > 78 | – |
| CC(C)OC(=O)[C@H](C)NP(=O)(OC[C@H]1O[C@@H](n2ccc(NO)nc2=O)C(O)C1O)Oc1ccccc1 (stereo partly drawn) [drawing 85] | – | – | inhibition at 10 µM (VEEV [2]; read-out: Viral Inh. 10 uM): 49%; inhibition at 50 µM (VEEV [2]; read-out: Viral Inh. 50 uM): 96%; Cell Viability 10 uM (Astrocytes): 102% ± 16% (n = 3); Cell Viability 50 uM (Astrocytes): 100% ± 17% (n = 3) |
| CCCCCCCNC(=O)OC[C@H]1O[C@@H](n2ccc(NO)nc2=O)C(O)[C@H]1O (stereo partly drawn) [EIDD-02475-01] | > 500 | > 78 | – |
| CCCCCCCNC(=O)ONc1ccn([C@@H]2O[C@H](CO)C(O)C2O)c(=O)n1 (stereo partly drawn) [drawing 92] | – | – | inhibition at 10 µM (MERV; 10 uM, read-out: Viral Inh. 10 uM): 86%; inhibition at 50 µM (MERV; 50 uM, read-out: Viral Inh. 50 uM): 98%; Cell Viability 10 uM (Vero; 10 uM): 118% ± 15% (n = 4); Cell Viability 50 uM (Vero; 50 uM): 91% ± 39% (n = 4) |
| CCCCCCCNC(=O)ONc1ccn([C@@H]2O[C@H](CO)[C@H](O)C2O)c(=O)n1 (stereo partly drawn) [EIDD-02107-01] | 165 | 29 | – |
| CC1(F)[C@@H](O)[C@@H](CO)O[C@H]1n1ccc(NO)nc1=O (stereo partly drawn) [EIDD-02080-01] | > 500 | > 75 | – |
| CC(C)(C)C(=O)OCOP(=O)(OCOC(=O)C(C)(C)C)OC[C@@]1(N=[N+]=[N-])O[C@@H](n2ccc(=O)[nH]c2=O)[C@@H](O)C1O (stereo partly drawn) [EIDD-02110-03] | 387 | 56 | – |
| [2H]c1cn([C@@H]2O[C@H](CO)C(O)[C@@H]2O)c(=O)nc1NO (stereo partly drawn) [EIDD-02261-01] | > 500 | 1.5 | – |
| CCCCCCCOC(=O)ONc1ccn([C@@H]2O[C@H](CO)C(O)C2O)c(=O)n1 (stereo partly drawn) [drawing 70] | – | – | EC50 (SARS Coronavirus Urbani): 0.28 µg/mL (≈ 0.698 µM); CC50 (in vitro [3]): > 100 µg/mL |
| CCOP(=O)(OCC)OC[C@H]1O[C@@H](n2ccc(NO)nc2=O)[C@@H](O)C1O (stereo partly drawn) [EIDD-02503-01] | > 500 | > 78 | – |
| O=c1nc(NO)cc[nH]1 [EIDD-02504-01] | > 500 | > 78 | – |
| CCCCCCCOC(=O)ONc1ccn([C@@H]2O[C@H](CO)C(O)C2O)c(=O)n1 (stereo partly drawn) [drawing 74] | – | – | inhibition at 10 µM (Chikungunya virus): 72%; inhibition at 50 µM (Chikungunya virus): 98%; Cell Viability 10 uM (U2OS cell line): 93% ± 4% (n = 4); Cell Viability 50 uM (U2OS cell line): 79% ± 8% (n = 4) |
| C#C[C@@]1(O)C(O)[C@@H](COP(=O)(OCOC(=O)C(C)(C)C)OCOC(=O)C(C)(C)C)O[C@H]1n1ccc(=O)[nH]c1=O (stereo partly drawn) [EIDD-02290-01] | 274 | 64.4 | – |
| CCCCCCCCCCCCCCCCCCNC(=O)ONc1ccn([C@@H]2O[C@H](CO)[C@H](O)C2O)c(=O)n1 (stereo partly drawn) [EIDD-02357-01] | 90 | > 78 | – |
| [2H]C([2H])(O)[C@H]1O[C@@H](n2ccc(NO)nc2=O)[C@@H](O)C1O (stereo partly drawn) [EIDD-02345-01] | > 500 | 1.5 | – |
| CONc1ccn([C@@H]2O[C@H](CO)C(O)C2O)c(=O)n1 (stereo partly drawn) | – | – | EC50 (SARS Coronavirus Urbani): > 100 µg/mL; CC50 (in vitro [3]): > 100 µg/mL |
| O=c1nc(NO)ccn1[C@@H]1O[C@H](COP2(=O)OCc3ccccc3O2)C(O)[C@@H]1O (stereo partly drawn) [EIDD-02207-01] | > 500 | 10.8 | – |
| CCCCCCCCCCCCCCCCOCCCOP(=O)(O)OC[C@H]1O[C@@H](n2ccc(NO)nc2=O)[C@@H](O)C1O (stereo partly drawn) [EIDD-02108-03] | 98 | 34.5 | – |
| CC(C)OC(=O)[C@H](C)NP(=O)(OC[C@H]1O[C@@H](n2ccc(NO)nc2=O)C(O)C1O)Oc1ccccc1 (stereo partly drawn) [drawing 80] | – | – | EC50 (VEEV [4]): 16.2 µM; inhibition at 10 µM (VEEV [4]; read-out: Viral Inh. 10 uM): 73%; inhibition at 50 µM (VEEV [4]; read-out: Viral Inh. 50 uM): 100%; Cell Viability 10 uM (HeLa): 137% ± 16% (n = 4); Cell Viability 50 uM (HeLa): 134% ± 16% (n = 4) |
| CCCCCCCCC(=O)OC[C@H]1O[C@@H](n2ccc(NO)nc2=O)C(O)[C@H]1O (stereo partly drawn) [EIDD-02476-01] | 154 | 0.3 | – |
| O=c1nc(NO)ccn1[C@@H]1O[C@H](CO)[C@H](O)C1F (stereo partly drawn) [EIDD-02085-01] | > 500 | > 75 | – |
